The text below walks through data of publication PMC7925909, “The Multi-Level Mechanism of Action of a Pan-Ras Inhibitor Explains its Antiproliferative Activity on Cetuximab-Resistant Cancer Cells” (Frontiers in Molecular Biosciences, 2021).

One assay addresses T1, HRas^G13D (Homo sapiens, UniProt P01112, G13D).
T1 construct: N-terminal His-tagged, residues 1-166
Nature of the assay: STD-NMR on HRas G13D-GDP; dose-dependent inhibition of intrinsic and GEF-mediated mant-nucleotide dissociation/exchange. It counts as binding.

The next assay has as its target T2, HRas (Homo sapiens, UniProt P01112).
T2 construct: N-terminal His-tagged, residues 1-166
In words: STD-NMR and native MS of the HRas-GDP-cmp4 ternary complex; the EC50 is from SPR inhibition of RasGRF1 binding to HRas-GDP; mant-nucleotide dissociation/exchange also inhibited.

pEC50: −log10 of the molar value.

T2 sequence (P01112 1-166): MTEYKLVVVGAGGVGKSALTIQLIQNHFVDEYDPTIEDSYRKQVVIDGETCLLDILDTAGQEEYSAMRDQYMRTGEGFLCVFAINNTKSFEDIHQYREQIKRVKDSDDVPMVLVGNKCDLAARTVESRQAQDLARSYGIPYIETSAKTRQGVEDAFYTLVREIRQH
T1 sequence (P01112 1-166 G13D): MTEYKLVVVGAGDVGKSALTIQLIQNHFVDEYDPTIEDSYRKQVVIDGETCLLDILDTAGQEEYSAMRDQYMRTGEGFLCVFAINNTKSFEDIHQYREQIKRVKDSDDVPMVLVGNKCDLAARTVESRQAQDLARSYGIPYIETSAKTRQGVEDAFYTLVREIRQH

In general, pEC50 refers to −log10 of the EC50, conventionally taken in molar units. Read a low pEC50 as a high EC50. Take `OC[C@H]1O[C@@H](O[C@H]2[C@H](O)[C@@H](O)[C@H](N(Cc3ccc(O)c(O)c3)OCc3ccccc3)O[C@@H]2CO)[C@H](O)[C@@H](O)[C@H]1O` [cmp4]: on HRas^G13D, the “STD-NMR on HRas G13D-GDP; dose-dependent inhibition of intrinsic and GEF-mediate” value is “STD analysis on HRas^G13D mutant protein saturated with cmp4 shows that cmp4 also interacts with the mutant protein”. The pEC50 at HRas is ~3.77.
